In patent EP4620955A1, “MC4R ANTAGONIST COMPOUND, PHARMACEUTICAL COMPOSITION AND PHARMACEUTICAL USE THEREOF” (Changchun Genescience Pharmaceutical Co., Ltd., priority 2022, dated 2024):

Key:
MC4R = target: T1, MC4R (Homo sapiens, UniProt P32245); test: Assay of MC4R antagonist activity in cells in vitro (cAMP assay, Melanotan I stimulation); type: cell-based; conditions: flipin-293-MC4 cell line, Melanotan I as agonist
T1 construct: expressed in transfected cells; host or cells: flipin-293-MC4 (Flp-In 293 host, hygromycin selection)
T1 sequence (P32245 whole entry): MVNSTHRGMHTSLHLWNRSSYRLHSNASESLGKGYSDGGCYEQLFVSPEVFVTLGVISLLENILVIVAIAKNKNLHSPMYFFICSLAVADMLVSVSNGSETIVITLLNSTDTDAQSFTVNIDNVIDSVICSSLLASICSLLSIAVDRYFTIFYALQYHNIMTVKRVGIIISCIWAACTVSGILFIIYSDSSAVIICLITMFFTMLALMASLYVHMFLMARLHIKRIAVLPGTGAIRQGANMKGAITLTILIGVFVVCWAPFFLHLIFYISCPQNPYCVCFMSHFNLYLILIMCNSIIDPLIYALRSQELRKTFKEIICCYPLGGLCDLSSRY
Protocol: Test Example 1: Assay of MC4R antagonist activity in cells in vitro
a. Experimental consumables:
b. Experimental steps • ✔ Cell line: flipin-293-MC4 • ✔ Cell culture medium: DMEM, 10% fetal bovine serum, 1 × PS, 200 µg/mL hygromycin • ✔ Experimental buffer: HBSS, 20 mM HEPES, 0.1% BSA, 500 µM IBMX • ✔ Positive compound: ML00253764 c. Antagonist detection • 1. Digested cells were suspended in the experimental buffer, and then inoculated into the 384-well cell culture plate. • 2. The to-be-detected compound was added to the cell plate, and incubated at 37°C for 10 min. • 3. Melanotan I was added to the cell plate, and incubated at 37°C for 30 min. • 4. Two detection reagents EU cAMP tracer and ulight anti camp were thawed and diluted with a lysis solution in the kit. • 5. The diluted detection reagents were added to the cell plate and incubated at room temperature for 1 h. • 6. Reading was carried out by Envision. (Excitation light: 340 nm, emission light: 615 nm and 665 nm) d. Data analysis • 1. %Inhibition calculation: %Inhibition = (Signalcmpd−SignalAve_VC)/(SignalAve_PC−SignalAve_VC) × 100. [formula] • Signalcmpd: compound signal value; • SignalAve_VC: negative control signal value; • SignalAve_PC: positive control signal value; • %inhibition: inhibition percentage. • 2. Calculation of IC50 of the compound using the nonlinear fitting equation in GraphPad: Y = Bottom + (Top−Bottom)/(1+10^(∧)((LogIC50−X)×HillSlope)) [formula] X: logarithmic value of the concentration of the compound; Y: inhibition percentage

[1] = Pharmacokinetic study on the tested compound in SD male rats; type: in vivo; conditions: IV 1 mpk/PO 2 mpk; for AUC / Cmax / clearance / half-life: Sprague-Dawley (SD), rat, plasma
Protocol: On the day of administration, the tested compound was prepared with 5% DMSO + 5% Solutol + 90% Saline as a solvent into a solution for administration for use.
The solution for administration was administered to an intravenous injection IV group at a dose of 1 mg/kg in a concentration of 0.2 mg/mL. The solution for administration was administered to an oral gavage PO group at a dose of 2 mg/kg in a concentration of 0.2 mg/mL. The animals in the PO group were required to fast overnight in advance, drink water freely, and be fed 4 hours after administration. The IV group was not required to fast.
The animals were weighed before administration. On the day of administration, the solution was IV/PO-administered once in an administration amount calculated based on the weight. In the IV group, blood was collected from veins at 0.083 h, 0.25 h, 0.5 h, 1.0 h, 2.0 h, 4.0 h, 8.0 h, and 24 h after administration. In the PO group, blood was collected from veins at 0.25 h, 0.5 h, 1.0 h, 2.0 h, 4.0 h, 6.0 h, 8.0 h, and 24 h after administration. The amount of blood collected was about 0.20 mL. K2-EDTA was used in blood collection tubes as an anticoagulant. The collected blood sample was centrifuged (centrifugation conditions: 6800 g, 6 min, 2°C to 8°C) within 1 h to obtain plasma. The to-be-tested sample was stored in a refrigerator at -80°C before analysis.
The concentration of the tested compound in the plasma of the SD male rats was detected by the validated LC-MS/MS method.

SMILES	IC50 (MC4R)	F [1]	AUC [1]	Cmax [1]	clearance [1]	half-life [1]
COc1cc([C@@H](C)C(=O)N2C[C@@H](Nc3ccc(-c4cn(C)nn4)c(C)n3)C3(CC3)C2)c(Cl)cn1 [Compound 165, (R)-2-(5-chloro-2-methoxypyridine-4-yl)-1-((S)-7-((6-methyl-5-(1-methyl-1H-1,2,3-triazol-4-yl)pyridine-2-yl)amino)-5-azaspiro[2.4]hept-5-yl)propan-1-one]	2.86 nM	56.0%	858 ng·h/mL	577 ng/mL	22.3 mL/min/kg	39 min
COc1cc([C@@H](C)C(=O)N2C[C@@H](Nc3ccc(-c4cn(C)c(OC(F)F)n4)c(C)n3)C3(CC3)C2)c(F)cn1 [Compound 185, (R)-1-((S)-7-((5-(2-(difluoromethoxy)-1-methyl-1H-imidazol-4-yl)-6-methylpyridine-2-yl)amino)-5-azaspiro[2.4]hept-5-yl)-2-(5-fluoro-2-methoxypyridine-4-yl)propan-1-one]	0.54 nM	22.9%	170 ng·h/mL	129 ng/mL	45.4 mL/min/kg	40.8 min
COc1cc([C@@H](C)C(=O)N2C[C@@H](Nc3ccc(-c4ncccn4)c(C)n3)C3(CC3)C2)c(F)cn1 [Compound 056-1, (2R)-2-(5-fluoro-2-methoxypyridine-4-yl)-1-[(7S)-7-{[6-methyl-5-(pyrimidine-2-yl)pyridine-2-yl]amino}-5-azaspiro[2.4]heptane-5-yl]propan-1-one]	4.23 nM	61.5%	566 ng·h/mL	380 ng/mL	35.8 mL/min/kg	53.4 min
COc1cc([C@@H](C)C(=O)N2CC[C@H](Nc3ccc(-c4ncccn4)c(C)n3)C2)c(F)cn1 [Compound 001-1, (R)-2-(5-fluoro-2-methoxypyridine-4-yl)-1-((S)-3-((6-methyl-5-(pyrimidine-2-yl)pyridine-2-yl)amino)pyrrolidine-1-yl)propan-1-one]	3.95 nM	86.8%	442 ng·h/mL	338 ng/mL	65.3 mL/min/kg	42.6 min
COc1cc([C@@H](C)C(=O)N2C[C@@H](Nc3ccc(-c4cn5c(n4)C(F)(F)CC5)c(C)n3)C3(CC3)C2)c(F)cn1 [Compound 189, (R)-1-((S)-7-((5-(7,7-difluoro-6,7-dihydro-5H-pyrrolo[1,2-a]imidazol-2-yl)-6-methylpyridine-2-yl)amino)-5-azaspiro[2.4]hept-5-yl)-2-(5-fluoro-2-methoxypyridine-4-yl)propan-1-one]	2.25 nM	–	–	–	–	–
COc1cc([C@@H](C)C(=O)N2CC[C@H](Nc3ccc(-c4cn(C)nn4)c(C)n3)C2)c(Cl)cn1 [Compound 195, (R)-2-(5-chloro-2-methoxypyridine-4-yl)-1-((S)-3-((6-methyl-5-(1-methyl-1H-1,2,3-triazol-4-yl)pyridine-2-yl)amino)pyrrolidine-1-yl)propan-1-one]	0.99 nM	–	–	–	–	–
COc1cc([C@@H](C)C(=O)N2C[C@@H](Nc3ccc(-c4cn(C)c(OC(F)F)n4)c(C)n3)C3(CC3)C2)c(Cl)cn1 [Compound 186, (R)-2-(5-chloro-2-methoxypyridine-4-yl)-1-((S)-7-((5-(2-(difluoromethoxy)-1-methyl-1H-imidazol-4-yl)-6-methylpyridine-2-yl)amino)-5-azaspiro[2.4]hept-5-yl)propan-1-one]	0.55 nM	–	–	–	–	–
COc1cc([C@@H](C)C(=O)N2C[C@@H](C)[C@H](Nc3ccc(-c4ncccn4)c(C)n3)C2)c(F)cn1 [Compound 051-2, (R)-2-(5-fluoro-2-methoxypyridine-4-yl)-1-((3R,4S)-3-methyl-4-((6-methyl-5-(pyrimidine-2-yl)pyridine-2-yl)amino)pyrrolidine-1-yl)propan-1-one]	10.6 nM	–	–	–	–	–
COc1cc([C@@H](C)C(=O)N2C[C@@H](Nc3ccc(-c4cn5c(n4)CCC5)c(C)n3)C3(CC3)C2)c(F)cn1 [Compound 187, (R)-1-((S)-7-((5-(6,7-dihydro-5H-pyrrolo[1,2-a]imidazol-2-yl)-6-methylpyridine-2-yl)amino)-5-azaspiro[2.4]hept-5-yl)-2-(S-fluoro-2-methoxypyridine-4-yl)propan-1-one]	3.42 nM	–	–	–	–	–
COc1cc([C@@H](C)C(=O)N2C[C@@H](Nc3ccc(-c4nc(C)n(C)n4)c(C)n3)C3(CC3)C2)c(Cl)cn1 [Compound 141, (2R)-2-(5-chloro-2-methoxypyridine-4-yl)-1-[(7S)-7-{[5-(1,5-dimethyl-1H-1,2,4-triazole-3-yl)-6-methylpyridine-2-yl]amino}-5-azaspiro[2.4]heptane-5-yl]propan-1-one]	2.88 nM	–	–	–	–	–
COc1cc([C@@H](C)C(=O)N2C[C@@H](Nc3ccc(-c4ncccn4)c(C)n3)C(C)(C)C2)c(Cl)cn1 [Compound 199, (R)-2-(5-chloro-2-methoxypyridine-4-yl)-1-((S)-3,3-dimethyl-4-((6-methyl-5-(pyrimidine-2-yl)pyridine-2-yl)amino)pyrrolidine-1-yl)propan-1-one]	366 nM	–	–	–	–	–
COc1cc([C@@H](C)C(=O)N2C[C@@H](Nc3ccc(-c4nccc(C(F)F)n4)c(C)n3)C3(CC3)C2)c(Cl)cn1 [Compound 156, (R)-2-(5-chloro-2-methoxypyridine-4-yl)-1-((S)-7-((5-(4-(difluoromethyl)pyrimidine-2-yl)-6-methylpyridine-2-yl)amino)-5-azaspiro[2.4]hept-5-yl)propan-1-one]	1.85 nM	–	–	–	–	–

More lines, in order of falling IC50 (MC4R), values ahead:

IC50 (MC4R)	SMILES	F [1]	AUC [1]	Cmax [1]	clearance [1]	half-life [1]
26.2 nM	COc1cc([C@@H](C)C(=O)N2CC[C@H](Nc3ccc(-c4ncc(C#N)cn4)c(C)n3)C2)c(F)cn1 [Compound 110, 2-(6-(((S)-1-((R)-2-(5-fluoro-2-methoxypyridine-4-yl)propionyl)pyrrolidine-3-yl)amino)-2-methylpyridine-3-yl)pyrimidine-5-nitrile]	–	–	–	–	–
3.68 nM	COc1cc([C@@H](C)C(=O)N2C[C@@H](Nc3ccc(-c4cc(C#N)ccn4)c(C)n3)C3(CC3)C2)c(Cl)cn1 [Compound 168, 6'-(((S)-5-((R)-2-(5-chloro-2-methoxypyridine-4-yl)propionyl)-5-azaspiro[2.4]hept-7-yl)amino)-2'-methyl-[2,3'-bipyridyl]-4-carbonitrile]	–	–	–	–	–
2.3 nM	COc1cc([C@@H](C)C(=O)N2C[C@H](C)[C@H](Nc3ccc(-c4ncccn4)c(C)n3)C2)c(Cl)cn1 [Compound 112, (R)-2-(5-chloro-2-methoxypyridine-4-yl)-1-((3 S,4S)-3-methyl-4-(6-methyl-5-(pyrimidine-2-yl)pyridine-2-yl-amino)pyrrolidine-1-yl)propane-1-one]	33.8%	179 ng·h/mL	157 ng/mL	62.5 mL/min/kg	15 min
1.84 nM	COc1cc([C@@H](C)C(=O)N2C[C@@H](Nc3ccc(-c4cn(C)cn4)c(C)n3)C3(CC3)C2)c(F)cn1 [Compound 150, (R)-2-(5-fluoro-2-methoxypyridine-4-yl)-1-((S)-7-((6-methyl-5-(1-methyl-1H-imidazol-4-yl)pyridine-2-yl)amino)-5-azaspiro[2.4]hept-5-yl)propan-1-one]	–	–	–	–	–
1.49 nM	COc1cc([C@@H](C)C(=O)N2C[C@@H](Nc3ccc(-c4cn(C)c(OC)n4)c(C)n3)C3(CC3)C2)c(Cl)cn1 [Compound 184, (R)-2-(5-chloro-2-methoxypyridine-4-yl)-1-((S)-7-((5-(2-methoxy-1-methyl-1H-imidazol-4-yl)-6-methylpyridine-2-yl)amino)-5-azaspiro[2.4]hept-5-yl)propan-1-one]	–	–	–	–	–
1.1 nM	COc1cc([C@@H](C)C(=O)N2C[C@@H](Nc3ccc(-c4cn5c(n4)C(F)(F)CC5)c(C)n3)C3(CC3)C2)c(Cl)cn1 [Compound 190, (R)-2-(5-chloro-2-methoxypyridine-4-yl)-1-((S)-7-((5-(7,7-difluoro-6,7-dihydro-5H-pyrrolo[1,2-a]imidazol-2-yl)-6-methylpyridine-2-yl)amino)-5-azaspiro[2.4]hept-5-yl)propan-1-one]	–	–	–	–	–
